Where two headings read alike, the source gives them in different places. Blank lines part the entries; values can stand above or below the molecule they belong to.
What was measured:
[1] = Ex vivo biodistribution of 68Ga-labeled tracers in PC-3 tumor-bearing mice; settings: mouse, 1 h pi; for tissue to tissue ratio at 1 h: male, NOD.Cg-Rag1^tm1Mom Il2rg^tm1Wjl/SzJ (NRG), iv, total radioactivity; for tissue uptake at 1 h: intravenous
Method: PET/CT imaging and biodistribution studies were conducted using male NOD.Cg-Rag1^tm1Mom Il2rg^tm1Wjl/SzJ (NRG) mice following previously published procedures. The studies were carried out in compliance with the guidelines established by the Canadian Council on Animal Care and approved by Animal Ethics Committee of the University of British Columbia (protocol number A20-0113, approved on 30 September 2022). The mice were anaesthetized and subcutaneously implanted with 5 × 10^6 PC-3 cells (100 µL; 1:1 PBS/Matrigel) behind the left shoulder. PET/CT imaging and biodistribution studies were performed once the tumors reached a diameter of 5–8 mm, typically after approximately 4 weeks of growth.
For ex vivo biodistribution studies, the mice were injected with the ^68Ga-labeled tracer (2–4 MBq) via a lateral caudal tail vein. For blocking [^68Ga]Ga-LW02060, the mice were co-injected with 100 μg of [D-Phe^6,Leu-NHEt^13,des-Met^14]Bombesin(6–14). For blocking [^68Ga]Ga-LW02080, the mice were co-injected with 100 μg of its nonradioactive standard Ga-LW02080. At 1 h pi, the mice were euthanized by CO2 inhalation. Blood and organs/tissues of interest were collected, weighed, and counted using a gamma counter.

[2] = biological target: T1, GRPR (Homo sapiens, UniProt P30550); assay: Fluorometric intracellular calcium release assay using PC-3 cells; format: cell-based; settings: for intracellular calcium release: 50 nM ligand, n = 4
T1 construct: host or cells: PC-3 cells
T1 sequence (P30550 whole entry): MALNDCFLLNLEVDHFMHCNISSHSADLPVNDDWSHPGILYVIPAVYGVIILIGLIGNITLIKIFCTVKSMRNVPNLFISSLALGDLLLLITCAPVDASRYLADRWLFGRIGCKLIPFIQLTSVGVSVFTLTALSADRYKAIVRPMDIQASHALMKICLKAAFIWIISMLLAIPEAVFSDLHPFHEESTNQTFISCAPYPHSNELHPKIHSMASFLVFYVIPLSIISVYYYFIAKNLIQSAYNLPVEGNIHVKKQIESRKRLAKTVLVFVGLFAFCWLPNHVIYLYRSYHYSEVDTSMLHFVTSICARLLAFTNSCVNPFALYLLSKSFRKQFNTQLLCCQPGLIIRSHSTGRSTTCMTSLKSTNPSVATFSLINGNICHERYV
Method: The agonist/antagonist characteristics of LW02060, Ga-LW02060, Lu-LW02060, LW02080, Ga-LW02080, and Lu-LW02080 were determined following published procedures. The PC-3 cells were obtained from ATCC (via Cedarlane, Burlington, ON, Canada). A 96-well clear bottom black plate was seeded with 5 × 10^4 PC-3 cells in 100 μL growth media per well 24 h before the assay. The loading buffer (100 μL/well) containing a calcium-sensitive dye (FLIPR Calcium 6 assay kit from Molecular Devices, San Jose, CA, USA) was added into the 96-well plate, followed by 1 h incubation at 37 °C. The plate was then transferred into a FlexStation 3 microplate reader (Molecular Devices, San Jose, CA, USA). LW02060 (50 nM), Ga-LW02060 (50 nM), Lu-LW02060 (50 nM), LW02080 (50 nM), Ga-LW02080 (50 nM), Lu-LW02080 (50 nM), [D-Phe^6,Leu-NHEt^13,des-Met^14]Bombesin(6–14) (50 nM, antagonist control), bombesin (50 nM, agonist control), adenosine triphosphate (ATP, 50 nM, positive control), or DPBS (blank control) was added, and the fluorescent signals were measured for 2 min (λEx = 485 nm; λEm = 525 nm; n = 4). The relative fluorescent units (RFU = max − min) were calculated to determine the agonistic/antagonistic characteristics of LW02060, Ga-LW02060, Lu-LW02060, LW02080, Ga-LW02080, and Lu-LW02080, respectively.

tissue to tissue ratio at 1 h ([1]; tumor/blood, blocked (100 µg blocking agent co-injected), read-out: Tumor/blood uptake ratio): 0.87 ± 0.15 | tissue to tissue ratio at 1 h ([1]; tumor/blood, n = 4, read-out: Tumor/blood uptake ratio): 22.7 ± 4.13 | tissue to tissue ratio at 1 h ([1]; tumor/bone, blocked (100 µg blocking agent co-injected), read-out: Tumor/bone uptake ratio): 5.52 ± 0.68 | tissue to tissue ratio at 1 h ([1]; tumor/bone, n = 4, read-out: Tumor/bone uptake ratio): 69.8 ± 13.7 | tissue to tissue ratio at 1 h ([1]; tumor/kidney, blocked (100 µg blocking agent co-injected), read-out: Tumor/kidney uptake ratio): 0.14 ± 0.03 | tissue to tissue ratio at 1 h ([1]; tumor/kidney, n = 4, read-out: Tumor/kidney uptake ratio): 3.18 ± 0.75 | tissue to tissue ratio at 1 h ([1]; tumor/muscle, blocked (100 µg blocking agent co-injected), read-out: Tumor/muscle uptake ratio): 3.61 ± 0.14 | tissue to tissue ratio at 1 h ([1]; tumor/muscle, n = 4, read-out: Tumor/muscle uptake ratio): 117 ± 18.6 | tissue to tissue ratio at 1 h ([1]; tumor/pancreas, blocked (100 µg blocking agent co-injected), read-out: Tumor/pancreas uptake ratio): 3.47 ± 0.64 | tissue to tissue ratio at 1 h ([1]; tumor/pancreas, n = 4, read-out: Tumor/pancreas uptake ratio): 18.4 ± 2.86 | tissue uptake at 1 h ([1]; PC-3 tumor, 100 ug, blocked (100 µg blocking agent co-injected), read-out: PC-3 tumor uptake): 1.71 ± 0.39 %ID/g | tissue uptake at 1 h ([1]; PC-3 tumor, n = 4, read-out: PC-3 tumor uptake): 7.36 ± 1.33 %ID/g | tissue uptake at 1 h ([1]; adrenal glands, 100 ug, blocked (100 µg blocking agent co-injected), read-out: Adrenal glands uptake): 0.69 ± 0.05 %ID/g | tissue uptake at 1 h ([1]; adrenal glands, n = 4, read-out: Adrenal glands uptake): 0.39 %ID/g | tissue uptake at 1 h ([1]; blood, 100 ug, blocked (100 µg blocking agent co-injected), read-out: Blood uptake): 2.02 ± 0.7 %ID/g | tissue uptake at 1 h ([1]; blood, n = 4, read-out: Blood uptake): 0.33 ± 0.08 %ID/g | tissue uptake at 1 h ([1]; bone, 100 ug, blocked (100 µg blocking agent co-injected), read-out: Bone uptake): 0.31 ± 0.06 %ID/g | tissue uptake at 1 h ([1]; bone, n = 4, read-out: Bone uptake): 0.11 ± 0.02 %ID/g | tissue uptake at 1 h ([1]; brain, 100 ug, blocked (100 µg blocking agent co-injected), read-out: Brain uptake): 0.06 ± 0.03 %ID/g | tissue uptake at 1 h ([1]; brain, n = 4, read-out: Brain uptake): 0.01 %ID/g | tissue uptake at 1 h ([1]; fat, 100 ug, blocked (100 µg blocking agent co-injected), read-out: Fat uptake): 0.25 ± 0.04 %ID/g | tissue uptake at 1 h ([1]; fat, n = 4, read-out: Fat uptake): 0.03 ± 0.01 %ID/g | tissue uptake at 1 h ([1]; heart, 100 ug, blocked (100 µg blocking agent co-injected), read-out: Heart uptake): 0.66 ± 0.18 %ID/g | tissue uptake at 1 h ([1]; heart, n = 4, read-out: Heart uptake): 0.11 ± 0.03 %ID/g | tissue uptake at 1 h ([1]; kidneys, 100 ug, blocked (100 µg blocking agent co-injected), read-out: Kidneys uptake): 11.2 ± 1.02 %ID/g | tissue uptake at 1 h ([1]; kidneys, n = 4, read-out: Kidneys uptake): 2.42 ± 0.81 %ID/g | tissue uptake at 1 h ([1]; large intestine, 100 ug, blocked (100 µg blocking agent co-injected), read-out: Large intestine uptake): 0.33 ± 0.1 %ID/g | tissue uptake at 1 h ([1]; large intestine, n = 4, read-out: Large intestine uptake): 0.3 ± 0.09 %ID/g | tissue uptake at 1 h ([1]; liver, 100 ug, blocked (100 µg blocking agent co-injected), read-out: Liver uptake): 1.05 ± 0.39 %ID/g | tissue uptake at 1 h ([1]; liver, n = 4, read-out: Liver uptake): 0.31 ± 0.07 %ID/g | tissue uptake at 1 h ([1]; lungs, 100 ug, blocked (100 µg blocking agent co-injected), read-out: Lungs uptake): 1.52 ± 0.44 %ID/g | tissue uptake at 1 h ([1]; lungs, n = 4, read-out: Lungs uptake): 0.28 ± 0.05 %ID/g | tissue uptake at 1 h ([1]; muscle, 100 ug, blocked (100 µg blocking agent co-injected), read-out: Muscle uptake): 0.53 ± 0.06 %ID/g | tissue uptake at 1 h ([1]; muscle, n = 4, read-out: Muscle uptake): 0.06 ± 0.02 %ID/g | tissue uptake at 1 h ([1]; pancreas, 100 ug, blocked (100 µg blocking agent co-injected), read-out: Pancreas uptake): 0.51 ± 0.18 %ID/g | tissue uptake at 1 h ([1]; pancreas, n = 4, read-out: Pancreas uptake): 0.38 ± 0.04 %ID/g | tissue uptake at 1 h ([1]; small intestine, 100 ug, blocked (100 µg blocking agent co-injected), read-out: Small intestine uptake): 1.04 ± 0.48 %ID/g | tissue uptake at 1 h ([1]; small intestine, n = 4, read-out: Small intestine uptake): 0.24 ± 0.07 %ID/g | tissue uptake at 1 h ([1]; spleen, 100 ug, blocked (100 µg blocking agent co-injected), read-out: Spleen uptake): 0.56 ± 0.17 %ID/g | tissue uptake at 1 h ([1]; spleen, n = 4, read-out: Spleen uptake): 0.18 ± 0.05 %ID/g | tissue uptake at 1 h ([1]; stomach, 100 ug, blocked (100 µg blocking agent co-injected), read-out: Stomach uptake): 0.38 ± 0.2 %ID/g | tissue uptake at 1 h ([1]; stomach, n = 4, read-out: Stomach uptake): 0.08 ± 0.04 %ID/g | tissue uptake at 1 h ([1]; testes, 100 ug, blocked (100 µg blocking agent co-injected), read-out: Testes uptake): 0.63 ± 0.2 %ID/g | tissue uptake at 1 h ([1]; testes, n = 4, read-out: Testes uptake): 0.12 ± 0.03 %ID/g
Molecule: CC(C)C[C@@H](CN1CC(F)(F)C[C@H]1C(N)=O)NC(=O)[C@H](Cc1c[nH]cn1)NC(=O)CN(C)C(=O)[C@@H](NC(=O)[C@H](C)NC(=O)[C@H](Cc1c[nH]c2ccccc12)NC(=O)[C@H](CCC(N)=O)NC(=O)[C@@H](Cc1ccccc1)NC(=O)CN1CCC(NC(=O)CN2CCN(CC(=O)O)CCN(CC(=O)O)CCN(CC(=O)O)CC2)CC1)C(C)C [[^68Ga]Ga-LW02080, metal not drawn]

agonist/antagonist characteristics [2]: GRPR antagonists | intracellular calcium release [2]: 11.4 ± 0.32 RFU
Molecule: DOTA-Pip-[D-Phe^6,NMe-Gly^11,Leu^13(ψ)diF-Pro^14]Bombesin(6–14) [LW02080]

agonist/antagonist characteristics [2]: GRPR agonists | intracellular calcium release [2]: 377 ± 41.9 RFU
Molecule: DOTA-Pip-[D-Phe^6,Tle^10,NMe-His^12,diF-Pro^14]Bombesin(6–14) [LW02060]
